Source: patent US20250340574A1, “MODULATORS OF CYSTIC FIBROSIS TRANSMEMBRANE CONDUCTANCE REGULATOR” (Vertex Pharmaceuticals Incorporated, priority 2022, published 2025)
Where two headings read alike, the source gives them in different places.

Assays:
[1] = target: T1, CFTR (F508del/MF-HBE cells) (Homo sapiens, UniProt P13569, DEL508-508); assay: Ussing chamber assay of CFTR-mediated short-circuit currents, Assay B (0.00001 μM to 25 μM, 12 concentrations); assay type: cell-based; settings: with 33 nM potentiator and 18 μM Tezacaftor, 20% human serum; for Emax: 18-24 hours, read-out: B Max activity (%)
T1 construct: human bronchial epithelial (HBE) cells derived from CF subjects heterozygous for F508del and a minimal function CFTR mutation (F508del/MF-HBE); endogenous in cells; host or cells: Primary human bronchial epithelial cells from CF subjects (F508del/MF genotype), differentiated at an air-liquid interface
T1 sequence (P13569 with tags, fused parts or gaps DEL508-508): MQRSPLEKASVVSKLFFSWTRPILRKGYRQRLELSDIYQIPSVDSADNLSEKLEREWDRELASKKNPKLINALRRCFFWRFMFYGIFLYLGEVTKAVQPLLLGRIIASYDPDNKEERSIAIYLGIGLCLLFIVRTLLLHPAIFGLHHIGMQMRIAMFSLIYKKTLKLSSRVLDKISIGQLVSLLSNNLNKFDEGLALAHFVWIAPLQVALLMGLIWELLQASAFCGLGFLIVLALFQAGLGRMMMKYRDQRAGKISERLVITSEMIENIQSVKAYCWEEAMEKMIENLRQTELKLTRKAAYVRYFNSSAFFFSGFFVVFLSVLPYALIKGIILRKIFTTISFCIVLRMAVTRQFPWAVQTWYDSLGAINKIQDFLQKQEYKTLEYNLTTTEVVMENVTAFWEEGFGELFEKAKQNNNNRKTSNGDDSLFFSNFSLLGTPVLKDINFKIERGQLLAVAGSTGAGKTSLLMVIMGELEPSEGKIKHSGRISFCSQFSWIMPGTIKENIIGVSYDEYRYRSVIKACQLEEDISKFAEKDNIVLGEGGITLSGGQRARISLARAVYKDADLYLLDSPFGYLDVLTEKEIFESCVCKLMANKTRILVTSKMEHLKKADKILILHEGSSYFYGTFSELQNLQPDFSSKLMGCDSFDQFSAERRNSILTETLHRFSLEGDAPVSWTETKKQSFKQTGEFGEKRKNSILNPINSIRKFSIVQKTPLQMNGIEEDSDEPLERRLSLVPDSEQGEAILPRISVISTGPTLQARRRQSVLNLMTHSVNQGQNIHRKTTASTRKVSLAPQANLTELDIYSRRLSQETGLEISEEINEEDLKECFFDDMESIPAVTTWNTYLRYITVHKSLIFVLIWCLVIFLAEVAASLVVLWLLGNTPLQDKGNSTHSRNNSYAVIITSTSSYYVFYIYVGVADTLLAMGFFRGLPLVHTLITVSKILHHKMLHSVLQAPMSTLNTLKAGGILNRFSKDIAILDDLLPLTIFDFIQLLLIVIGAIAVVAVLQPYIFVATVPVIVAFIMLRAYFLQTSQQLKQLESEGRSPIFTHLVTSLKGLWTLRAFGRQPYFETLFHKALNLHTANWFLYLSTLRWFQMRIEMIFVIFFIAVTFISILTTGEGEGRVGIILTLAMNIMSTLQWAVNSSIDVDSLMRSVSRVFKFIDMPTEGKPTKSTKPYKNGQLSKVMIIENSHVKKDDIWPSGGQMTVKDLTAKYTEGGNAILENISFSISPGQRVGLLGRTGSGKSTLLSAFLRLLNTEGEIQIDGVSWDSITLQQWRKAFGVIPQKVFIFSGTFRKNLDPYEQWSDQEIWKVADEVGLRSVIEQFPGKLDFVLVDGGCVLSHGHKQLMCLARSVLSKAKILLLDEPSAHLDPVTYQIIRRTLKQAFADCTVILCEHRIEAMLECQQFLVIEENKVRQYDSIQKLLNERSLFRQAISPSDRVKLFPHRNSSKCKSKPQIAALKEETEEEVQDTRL
Experimental: Ussing chamber experiments were performed using human bronchial epithelial (HBE) cells derived from CF subjects heterozygous for F508del and a minimal function CFTR mutation (F508del/MF-HBE) and cultured as previously described (Neuberger T, Burton B, Clark H, Van Goor F Methods Mol Biol 2011:741:39-54). After four days the apical media was removed, and the cells were grown at an air liquid interface for >14 days prior to use.
To isolate the CFTR-mediated short-circuit (ISC) current, F508del/MF-HBE grown on Costar® Snapwell™ cell culture inserts were mounted in an Ussing chamber and the transepithelial ISC was measured under voltage-clamp recording conditions (Vhold=0 mV) at 37° C. The basolateral solution contained (in mM) 145 NaCl, 0.83 K2HPO4, 3.3 KH2PO4, 1.2 MgCl2, 1.2 CaCl2, 10 Glucose, 10 HEPES (pH adjusted to 7.4 with NaOH) and the apical solution contained (in mM) 145 NaGluconate, 1.2 MgCl2, 1.2 CaCl2, 10 glucose, 10 HEPES (pH adjusted to 7.4 with NaOH) and 30 μM amiloride to block the epithelial sodium channel. Forskolin (20 μM) was added to the apical surface to activate CFTR, followed by apical addition of a CFTR inhibitor cocktail consisting of BPO, GlyH-101, and CFTR inhibitor 172 (each at 20 μM final assay concentration) to specifically isolate CFTR currents. The CFTR-mediated ISC (μA/cm^2) for each condition was determined from the peak forskolin response to the steady-state current following inhibition.
The activity of the CFTR corrector compounds on the CFTR-mediated ISC was determined in Ussing chamber studies as described above. The F508del/MF-HBE cell cultures were either incubated with the corrector compounds at a range of concentrations in combination with 33 nM (6R,12R)-17-amino-12-methyl-6,15-bis(trifluoromethyl)-13,19-dioxa-3,4,18-triazatricyclo[12.3.1.12,5]nonadeca-1(18),2,4,14,16-pentaen-6-ol and 18 μM Tezacaftor or were incubated with the corrector compounds at a single fixed concentration of 1 μM in combination with 44 nM (6R,12R)-17-amino-12-methyl-6,15-bis(trifluoromethyl)-13,19-dioxa-3,4,18-triazatricyclo[12.3.1.12,5]nonadeca-1(18),2,4,14,16-pentaen-6-ol and 18 μM Tezacaftor for 18-24 hours at 37° C. and in the presence of 20% human serum. The concentration of corrector compounds with 44 nM or 33 nM (6R,12R)-17-amino-12-methyl-6,15-bis(trifluoromethyl)-13,19-dioxa-3,4,18-triazatricyclo[12.3.1.12,5]nonadeca-1(18),2,4,14,16-pentaen-6-ol and 18 μM Tezacaftor during the 18-24 hours incubations was kept constant throughout the Ussing chamber measurement of the CFTR-mediated ISC to ensure compounds were present throughout the entire experiment. The efficacy and potency of the putative F508del correctors was compared to that of the known Vertex corrector, (14S)-8-[3-(2-{Dispiro[2.0.2.1]heptan-7-yl}ethoxy)-1H-pyrazol-1-yl]-12,12-dimethyl-2λ^6-thia-3,9,11,18,23-pentaazatetracyclo[17.3.1.111,14.05,10]tetracosa-1(22),5,7,9,19(23),20-hexaene-2,2,4-trione, in combination with 18 μM Tezacaftor and 1 μM Ivacaftor.
• Assay A: 0.1 μM to 25 μM, 6 concentrations • Assay B: 0.00001 μM to 25 μM, 12 concentrations • Assay C: 0.026 μM to 25 μM, 6 concentrations • Assay D: Activity at single concentration of 1 μM

[2] = amide bond, 13-membered ring, CDMT/NMM, DMF
[3] = target: T1, CFTR (F508del/MF-HBE cells); assay: Ussing chamber assay of CFTR-mediated short-circuit currents, Assay C (0.026 μM to 25 μM, 6 concentrations); assay type: cell-based; settings: with 33 nM potentiator and 18 μM Tezacaftor, 20% human serum
In short: (§1)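 F508del/MF-HBE cells grown at air-liquid interface were incubated 18-24 h at 37 °C in 20% human serum with correctors plus 18 μM tezacaftor and a fixed partner compound (33 nM for concentration series, 44 nM at 1 μM). ISC was read at 0 mV after 20 μM forskolin, minus the post-inhibitor current.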

[4] = target: T1, CFTR (F508del/MF-HBE cells); assay: Ussing chamber assay of CFTR-mediated short-circuit currents, Assay D (single concentration of 1 μM); assay type: cell-based; settings: with 44 nM potentiator and 18 μM Tezacaftor, 18-24 hours, 20% human serum
In short: as §1

[5] = target: T1, CFTR (F508del/MF-HBE cells); assay: Ussing chamber assay of CFTR-mediated short-circuit currents, Assay A (0.1 μM to 25 μM, 6 concentrations); assay type: cell-based; settings: with 33 nM potentiator and 18 μM Tezacaftor, 20% human serum; for Emax: 18-24 hours, read-out: A Max activity (%)
In short: as §1

Row | Emax [1] [%] | EC50 [1] [nM] | Emax [5] [%] | EC50 [5] [nM] | Compound | other results
1 | > 60 | 3000 to 30000 |  |  | Cc1cccc(C)c1-c1cc2nc(n1)NS(=O)(=O)c1cccc(c1)C(=O)N(Cc1cnc3cn(C(C)C)nc3n1)[C@H](CC1(C)CC1)CO2 [Compound I-128, (11R)-6-(2,6-Dimethylphenyl)-12-[(2-isopropylpyrazolo[3,4-b]pyrazin-6-yl)methyl]-11-[(1-methylcyclopropyl)methyl]-2,2-dioxo-9-oxa-2λ^6-thia-3,5,12,19-tetrazatricyclo[12.3.1.14,8]nonadeca-1(18),4(19),5,7,14,16-hexaen-13-one] | ring closure, yield after HPLC ([2]; from Cc1cccc(C)c1-c1cc(OC[C@@H](CC2(C)CC2)NCc2cnc3cn(C(C)C)nc3n2)nc(NS(=O)(=O)c2cccc(C(=O)O)c2)n1, 12.0 mM, 22.5 h): 38%
2 | > 60 | < 1000 |  |  | Cc1cccc(C)c1-c1cc2nc(n1)NS(=O)(=O)c1cccc(c1)C(=O)N(Cc1cnc3oc(C4CCC4)cc3n1)[C@H](CC13CC(C1)C3)CO2 [Compound I-134, (11R)-11-(1-Bicyclo[1.1.1]pentanylmethyl)-12-[(6-cyclobutylfuro[2,3-b]pyrazin-2-yl)methyl]-6-(2,6-dimethylphenyl)-2,2-dioxo-9-oxa-2λ^6-thia-3,5,12,19-tetrazatricyclo[12.3.1.14,8]nonadeca-1(18),4(19),5,7,14,16-hexaen-13-one] | ring closure, yield after HPLC ([2]; from Cc1cccc(C)c1-c1cc(OC[C@@H](CC23CC(C2)C3)NCc2cnc3oc(C4CCC4)cc3n2)nc(NS(=O)(=O)c2cccc(C(=O)O)c2)n1, 28.4 mM, 2.0 h): 91%
3 | > 60 | < 1000 |  |  | Cc1cccc(C)c1-c1nc2nc(c1C)OC[C@@H](CC(C)(C)C)N(Cc1cnc3cc(C(C)(C)C)n(C)c3n1)C(=O)c1cccc(c1)S(=O)(=O)N2 [Compound I-188, (11R)-12-[(6-tert-Butyl-5-methyl-pyrrolo[2,3-b]pyrazin-3-yl)methyl]-6-(2,6-dimethylphenyl)-11-(2,2-dimethylpropyl)-7-methyl-2,2-dioxo-9-oxa-2λ^6-thia-3,5,12,19-tetrazatricyclo[12.3.1.14,8]nonadeca-1(18),4(19),5,7,14,16-hexaen-13-one] | Emax ([3]; 18-24 hours, read-out: C Max activity (%)): > 60%; EC50 [3]: < 1000 nM; ring closure, yield after HPLC ([2]; from Cc1cccc(C)c1-c1nc(NS(=O)(=O)c2cccc(C(=O)O)c2)nc(OC[C@@H](CC(C)(C)C)NCc2cnc3cc(C(C)(C)C)n(C)c3n2)c1C, 19.8 mM, 4.0 h): 57%; D activity at 1 μM (%) [4]: +++ (+++ is >60%)
4 | > 60 | 1000 to 3000 | > 60 | < 1000 | Cc1cccc(C)c1-c1cc2nc(n1)NS(=O)(=O)c1cccc(c1)C(=O)N(Cc1cnc3oc(C4CC4)cc3n1)[C@H](CC13CC(C1)C3)CO2 [Compound I-52, (11R)-11-(1-bicyclo[1.1.1]pentanylmethyl)-12-[(6-cyclopropylfuro[2,3-b]pyrazin-2-yl)methyl]-6-(2,6-dimethylphenyl)-2,2-dioxo-9-oxa-2λ^6-thia-3,5,12,19-tetrazatricyclo[12.3.1.14,8]nonadeca-1(18),4(19),5,7,14,16-hexaen-13-one] | ring closure, yield after HPLC ([2]; from Cc1cccc(C)c1-c1cc(OC[C@@H](CC23CC(C2)C3)NCc2cnc3oc(C4CC4)cc3n2)nc(NS(=O)(=O)c2cccc(C(=O)O)c2)n1, 12.4 mM, 18.0 h): 66%
5 | > 60 | 1000 to 3000 | > 60 | < 1000 | Cc1cccc(C)c1-c1cc2nc(n1)NS(=O)(=O)c1cccc(c1)C(=O)N(Cc1cnc3oc(C(C)(C)C)cc3n1)[C@H](CC1(C)CC1)CO2 [Compound I-98, (11R)-12-[(6-tert-butylfuro[2,3-b]pyrazin-2-yl)methyl]-6-(2,6-dimethylphenyl)-11-[(1-methylcyclopropyl)methyl]-2,2-dioxo-9-oxa-2λ^6-thia-3,5,12,19-tetrazatricyclo[12.3.1.14,8]nonadeca-1(18),4(19),5,7,14,16-hexaen-13-one] | ring closure, yield after HPLC ([2]; from Cc1cccc(C)c1-c1cc(OC[C@@H](CC2(C)CC2)NCc2cnc3oc(C(C)(C)C)cc3n2)nc(NS(=O)(=O)c2cccc(C(=O)O)c2)n1, 44.5 mM, 16.0 h): 55%
6 | > 60 | 1000 to 3000 | > 60 | < 1000 | Cc1cccc(C)c1-c1cc2nc(n1)NS(=O)(=O)c1cccc(c1)C(=O)N(Cc1cnc3oc(C4CC4)cc3n1)[C@H](COC(C)C)CO2 [Compound I-23, (11R)-12-[(6-cyclopropylfuro[2,3-b]pyrazin-2-yl)methyl]-6-(2,6-dimethylphenyl)-11-(isopropoxymethyl)-2,2-dioxo-9-oxa-2λ^6-thia-3,5,12,19-tetrazatricyclo[12.3.1.14,8]nonadeca-1(18),4(19),5,7,14,16-hexaen-13-one] | ring closure, yield after HPLC ([2]; from Cc1cccc(C)c1-c1cc(OC[C@@H](COC(C)C)NCc2cnc3oc(C4CC4)cc3n2)nc(NS(=O)(=O)c2cccc(C(=O)O)c2)n1, 40.6 mM, 14.0 h): 52%
7 | > 60 | 3000 to 30000 |  |  | Cc1cccc(C)c1-c1cc2nc(n1)NS(=O)(=O)c1cccc(c1)C(=O)N(Cc1cnc3oc(C4CC4)cc3n1)[C@H](CC1(F)CCC1)CO2 [Compound I-123, (11R)-12-[(6-cyclopropylfuro[2,3-b]pyrazin-2-yl)methyl]-6-(2,6-dimethylphenyl)-11-[(1-fluorocyclobutyl)methyl]-2,2-dioxo-9-oxa-2λ^6-thia-3,5,12,19-tetrazatricyclo[12.3.1.14,8]nonadeca-1(18),4(19),5,7,14,16-hexaen-13-one] | ring closure, yield after HPLC ([2]; from Cc1cccc(C)c1-c1cc(OC[C@@H](CC2(F)CCC2)NCc2cnc3oc(C4CC4)cc3n2)nc(NS(=O)(=O)c2cccc(C(=O)O)c2)n1, 27.1 mM, 2.08 h): 53%
8 | > 60 | 1000 to 3000 | > 60 | < 1000 | Cc1cccc(C)c1-c1cc2nc(n1)NS(=O)(=O)c1cccc(c1)C(=O)N(Cc1cnc3oc(C4(C)CC4)cc3n1)[C@H](CC1(C)CC1)CO2 [Compound I-96, (11R)-6-(2,6-dimethylphenyl)-12-[[6-(1-methylcyclopropyl)furo[2,3-b]pyrazin-2-yl]methyl]-11-[(1-methylcyclopropyl)methyl]-2,2-dioxo-9-oxa-2λ^6-thia-3,5,12,19-tetrazatricyclo[12.3.1.14,8]nonadeca-1(18),4(19),5,7,14,16-hexaen-13-one] | ring closure, yield after HPLC ([2]; from Cc1cccc(C)c1-c1cc(OC[C@@H](CC2(C)CC2)NCc2cnc3oc(C4(C)CC4)cc3n2)nc(NS(=O)(=O)c2cccc(C(=O)O)c2)n1, 50.0 mM, 6.0 h): 63%
